Assay results reported in patent publication US20250250538A1, “METHODS FOR MAKING AND USING DIFFERENTIATED NEURAL CELLS” (RESEARCH DEVELOPMENT FOUNDATION, priority 2022, published 2025).

What was measured:
[1] = system: dopaminergic neurospheres; test: Effects of antioxidants on three-dimensional dopaminergic neuron differentiation (3D-Ali); type: cell-based, human; details: 3D-Ali neurospheres cultured with anti-oxidant (FIG. 21B)
Description: FIG. 20. Protocol design with the addition of anti-oxidants. FIG. 21A-B. Effects of DA maturation with the additional of anti-oxidants. […] The inventors also tested the effects of different antioxidants on three-dimensional dopaminergic neuron differentiation. […] Most of the tested anti-oxidants diminish TH expression during dopaminergic neuron differentiation.

[2] = system: dopaminergic neurospheres; test: Effect of laminin and hypoxia on dopaminergic maturation of neurospheres; type: cell-based, human; details: 2.5% and 10% laminin; normoxia (20% oxygen) or hypoxia (3% oxygen); day 29
Description: FIG. 17. Experimental design and engineering of maturation protocol.
FIG. 18. Effect of hypoxia and laminin on dopaminergic maturation.
To improve the maturation step, 2.5% or 10% of Laminin 511 (Takkara) or Geltrex® (A growth factors reduced extracellular matrix, ThermoFisher) will be added into the cell culture medium to promote neuronal maturation of spheroids starting from day 1 of differentiation to the end and from day 13 to the end. RGD peptides could also be tested to enhance maturation, by adding them to the culture medium similarly to laminin or geltrex.
The inventors tested whether the additional of an extracellular matrix and/or hypoxia could improve the development of mature neurons. 2.5% and 10% laminin and normoxia (20% oxygen) or hypoxia (3% oxygen) was tested (FIG. 17). […] It was further hypothesized that other changes to the cell culture, such as modification of the volume of the cell culture medium could provide for an improvement in the maturation of neurons. […] In AirLiwell (6 well plate), a seeding 1.5 million cells per well (6 well AirLiwell plate) yields 2350 neurospheres.

[3] = system: human embryonic stem cell line HS420; test: Dopaminergic differentiation of hESC with ALK inhibitors in the 3D-AirLiwell protocol, q-PCR after 2 and 4 weeks; type: cell-based; details: HS420, 3D-AirLiwell, q-PCR at 2 and 4 weeks; for activity with respect to general neural differentiation, compared to LDN/SB (dual smad inhibition): exposed from day 0 during one week at 0.2 μM and 0.8 μM; for effect on dopaminergic differentiation, compared to LDN/SB: exposed from day 0 during one week at 0.2 M and 0.8 M
Protocol: FIG. 22. Dopaminergic differentiation adding Alk-I compounds in 3D-Ali protocol. The concentrations of the compounds tested were 0.2 μM and 0.8 μM.
FIG. 23A-D. Quantitative PCR results: Dopaminergic differentiation adding Alk-I compounds in 3D-Ali protocol. Shown are qPCR results at week 2 and week 4 for (A) Ki-67 and Nestin; (B) Pax6 and B3-Tub; (C) Lmx1a and Nurr-1; and (D) Map-2 and TH. The data in FIGS. 23A-D shown in each group of 12 bars represents, from left to right: 1: Control day 0, 2: LDN193189/SB431542, 3: DMSO 0.2 μM, 4: DMSO 0.8 μM, 5: DMH1 0.2 μM, 6: DMH2 0.2 μM, 7: A-8301 0.2 μM, 8: K02288 0.2 μM, 9: DMH1 0.8 μM, 10: DMH2 0.8 μM, 11: A-8301 0.8 μM, 12: K02288 0.8 μM. The 11 bars in the bottom bar graph in FIG. 23D represent data, from left to right, from: 1: Control day 0, 2: LDN193189/SB431542, 3: DMSO 0.2 μM, 4: DMSO 0.8 μM, 5: DMH1 0.2 μM, 6: DMH2 0.2 μM, 7: A-8301 0.2 μM, 8: K02288 0.2 μM, 9: DMH1 0.8 μM, 10: DMH2 0.8 μM, and 11: A-8301 0.8 μM.
For neural differentiation, 2200 human pluripotent stem cells per microwell in supplemented X-VIVO medium were deposited on a substrate material consisting in molded microwells on an insert in air-liquid interface (720 microwells per well). In order to correctly distribute the cells in each microwell, the substrate material is gently shacked and put on a stable support for 15 min. Supplemented X-VIVO medium was added under the insert. Medium from the cell suspension added on the microwells, was then removed by aspiration with a 0.5×16 mm needle and spheroids are just covered by a thin film (10) of residual medium before incubation of the plate at 37° C. for 24 hours.
24 hours after spheroids formation, culture medium under the insert is replaced with fresh medium made by a combination of half X-VIVO and half Neurobasal medium without ROCK inhibitor supplemented with 1% of penicillin/streptomycin, 1% Non-essential amino-acids, 1% B-27 supplement (Thermofisher), L-Glutamin, 0.5 μM of SB431542, 10 μM LDN193189 (dual-SMAD inhibition cocktail), 100 ng/ml of SHH, 2 μM of Purmorphamin and 100 ng/ml FGF-8. Spheroids are then cultured in their individualized microwells in a conventional incubator at 37° C. and 5% C02. At day 3, 3 μM of CHIR99021 was added. The neurobasal medium replaced progressively the X-VIVO medium. At day 8, medium is replaced by Neurobasal medium supplemented with 1% of penicillin/streptomycin, 1% Non-essential amino-acids, 1% B-27 supplement, 3 μM of CHIR99021, 0.5 mM of cAMP, […], […], 5 ng/mL of FGF20, 1 ng/mL of TGF-B3 and 1 μM of Compound E. At day 13 CHIR99021 is removed. NB: for each medium exchange, the half of medium was refreshed, using 0.5 ml per well.
For qRT-PCR, RNA was extracted from dopaminergic neurospheres cultivated in immersion (3D-i) and in air-liquid culture interface (3D-ALi) derived from 3 different cell batches of HS420 cells. The time points for RNA extraction were days: 3, 8, 15, 22, 29, 43, 57. Total RNA isolation was performed using the Qiagen RNeasy kit according to the manufacturer's instructions. RNA concentration was determined by a spectrometer (Thermo Scientific™ NanoDrop 2000) and RNA quality was verified by the 2100 Bioanalyzer (Agilent). Quantitative PCR was performed with Tecan Freedom Evo by using SYBR green fluorescence. cDNA was produced from RNA by using the prime script RT reagent kit (Takara). All primers were diluted at a concentration of […], and a master mix was used (Power SYBR Green Master Mix, Thermo Fisher Scientific). To perform the RNA-sequencing, the same RNA used in qPCR, were used to analyze the gene expression at week 6 (=day 43) of differentiation. […]

Row | Compound | DA neuron differentiation [1] | effect on maturation of dopaminergic neurons [2] | activity with respect to general neural differentiation, compared to LDN/SB (dual smad inhibition) [3] | effect on dopaminergic differentiation, compared to LDN/SB [3]
1 | O=C1O[C@H]([C@@H](O)CO)C(O)=C1O [ascorbic acid] | marked enhancement | – | – | –
2 | laminin | – | did not provide any apparent effect | – | –
3 | Cc1cccc(-c2nn(C(=S)Nc3ccccc3)cc2-c2ccnc3ccccc23)n1 [A-8301, 3-(6-Methyl-2-pyridinyl)-N -phenyl-4-(4-quinolinyl)-1H -pyrazole-1-carbothioamide] | – | – | activity comparable to LDN/SB | no major effects
4 | CC(C)Oc1ccc(-c2cnc3c(-c4ccnc5ccccc45)cnn3c2)cc1 [DMH1, 4-[6-[4-(1-Methylethoxy)phenyl]pyrazolo[1,5-a]pyrimidin-3-yl]-quinoline] | – | – | activity comparable to LDN/SB | roughly equipotent as compared to LDN/SB
5 | COc1cc(-c2cc(-c3cccc(O)c3)cnc2N)cc(OC)c1OC [K02288] | – | – | activity comparable to LDN/SB | no major effects
6 | c1ccc2c(-c3cnn4cc(-c5ccc(OCCN6CCOCC6)cc5)cnc34)ccnc2c1 [DMH2, 4-[6-[4-[2-(4-Morpholinyl)ethoxy]phenyl]pyrazolo[1,5-a]pyrimidin-3-yl]quinoline] | – | – | activity comparable to LDN/SB | roughly equipotent as compared to LDN/SB
